# US20260272924A1, “ISOINDOLINE DERIVATIVE, BENZOINDOLE DERIVATIVE AND USE THEREOF” (SHANGHAI HELIOSON PHARMACEUTICAL CO., LTD., priority 2023, published 2026)
# Tested on: NCI-H929 multiple myeloma cells
# Assay: Cell Titer-GLO (CTG) assay for proliferation of NCI-H929 cells
# Assay type: cell-based
# Conditions: Homo sapiens, 72 hours
# In short: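 NCI-H929 cells, 5000/well, treated next day with compound from 0.00512 to 400 nM (5-fold steps, duplicates) for 72 h at 37° C. Viability by CellTiter-Glo luminescence, normalised to 0.1% DMSO and medium blank; IC50 and maximal inhibition from nonlinear dose-response regression.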
row,IC50 [nM],SMILES
1,0.07,"O=C1CCC(N2C(=O)c3cccc4c(Cc5ccc(CN6CCN(c7ccnc(-n8ccnc8C(F)(F)F)n7)CC6)cc5)ccc2c34)C(=O)N1 (stereo not shown) [Example 13, 3-(2-oxo-6-(4-((4-(2-(2-(trifluoromethyl)-1H-imidazol-1-yl)pyrimidin-4-yl)piperazin-1-yl)methyl)benzyl)benzo[cd]indol-1(2H)-yl)piperidin-2,6-dione]"
2,0.02,"Cc1ncn(-c2ncc(F)c(N3CCN(Cc4ccc(Cc5ccc6c7c(cccc57)C(=O)N6C5CCC(=O)NC5=O)cc4)CC3)n2)n1 (stereo not shown) [Example 68, 3-(6-(4-((4-(5-fluoro-2-(3-methyl-1H-1,2,4-triazol-1-yl)pyrimidin-4-yl)piperazin-1-yl)methyl)benzyl)-2-oxobenzo[cd]indol-1(2H)-yl)piperidin-2,6-dione]"
3,0.02,"Cc1nc(N2CCN(Cc3ccc(Cc4ccc5c6c(cccc46)C(=O)N5C4CCC(=O)NC4=O)cc3)CC2)cc(-n2cnc(C(F)(F)F)c2)n1 (stereo not shown) [Example 29, 3-(6-(4-((4-(2-methyl-6-(4-(trifluoromethyl)-1H-imidazol-1-yl)pyrimidin-4-yl)piperazin-1-yl)methyl)benzyl)-2-oxobenzo[cd]indol-1(2H)-yl)piperidin-2,6-dione]"
4,0.01,"Cc1nc(N2CCN(Cc3ccc(Cc4ccc5c6c(cccc46)C(=O)N5C4CCC(=O)NC4=O)cc3)CC2)cc(-n2cnc(Cl)c2)n1 (stereo not shown) [Example 50, 3-(6-(4-((4-(6-(-4-chloro-1H-imidazol-1-yl)-2-methylpyrimidin-4-yl)piperazin-1-yl)methyl)benzyl)-2-oxobenzo[cd]indol-1(2H)-yl)piperidin-2,6-dione]"
5,0.07,"Cc1cc(C(=O)NC2CCN(Cc3ccc(Cc4ccc5c6c(cccc46)C(=O)N5C4CCC(=O)NC4=O)cc3)CC2)nc(-n2ccnc2)n1 (stereo not shown) [Example 12, N-(1-(4-((1-(2,6-dioxopiperidin-3-yl)-2-oxo-1,2-dihydrobenzo[cd]indol-6-yl)methyl)benzyl)piperidin-4-yl)-2-(1H-imidazol-1-yl)-6-methylpyrimidin-4-carboxamide]"
6,0.07,"O=C1CCC(N2C(=O)c3cccc4c(Cc5ccc(CN6CCN(c7cccc(-n8cnc(C(F)(F)F)n8)n7)CC6)cc5)ccc2c34)C(=O)N1 (stereo not shown) [Example 62, 3-(2-oxo-6-(4-((4-(6-(3-(trifluoromethyl)-1H-1,2,4-triazol-1-yl)pyridin-2-yl)piperazin-1-yl)methyl)benzyl)benzo[cd]indol-1(2H)-yl)piperidin-2,6-dione]"
7,0.03,"Cc1nncn1-c1cccc(N2CCN(Cc3ccc(Cc4ccc5c6c(cccc46)C(=O)N5C4CCC(=O)NC4=O)cc3)CC2)n1 (stereo not shown) [Example 28, 3-(6-(4-((4-(6-(3-methyl-4H-1,2,4-triazol-4-yl)pyridin-2-yl)piperazin-1-yl)methyl)benzyl)-2-oxobenzo[cd]indol-1(2H)-yl)piperidin-2,6-dione]"
8,0.01,"Cc1ncn(-c2nc(N3CCN(C4CN(Cc5ccc(Cc6ccc7c8c(cccc68)C(=O)N7C6CCC(=O)NC6=O)cc5)C4)CC3)cc(C(F)(F)F)n2)n1 (stereo not shown) [Example 52, 3-(6-(4-((3-(4-(2-(3-methyl-1H-1,2,4-triazol-1-yl)-6-(trifluoromethyl)pyrimidin-4-yl)piperazin-1-yl)azetidin-1-yl)methyl)benzyl)-2-oxobenzo[cd]indol-1(2H)-yl)piperidin-2,6-dione]"
9,0.01,"Cc1nnc(-c2ncc(F)c(N3CCN(Cc4ccc(Cc5ccc6c7c(cccc57)C(=O)N6C5CCC(=O)NC5=O)cc4)CC3)n2)s1 (stereo not shown) [Example 42, 3-(6-(4-((4-(5-fluoro-2-(5-methyl-1,3,4-thiadiazol-2-yl)pyrimidin-4-yl)piperazin-1-yl)methyl)benzyl)-2-oxobenzo[cd]indol-1(2H)-yl)piperidin-2,6-dione]"
10,0.01,"Cc1nc(N2CCN(Cc3ccc(Cc4ccc5c6c(cccc46)C(=O)N5[C@H]4CCC(=O)NC4=O)cc3)CC2)cc(-n2cnc(C)n2)n1 [Example 46, (S)-3-(6-(4-((4-(2-methyl-6-(3-methyl-1H-1,2,4-triazol-1-yl)pyrimidin-4-yl)piperazin-1-yl)methyl)benzyl)-2-oxobenzo[cd]indol-1(2H)-yl)piperidin-2,6-dione]"
11,0.02,"O=C1CC[C@H](N2C(=O)c3cccc4c(Cc5ccc(CN6CCN(c7ccnc(-n8cnc(C(F)(F)F)c8)n7)CC6)cc5)ccc2c34)C(=O)N1 [Example 33, (S)-3-(2-oxo-6-(4-((4-(2-(4-(trifluoromethyl)-1H-imidazol-1-yl)pyrimidin-4-yl)piperazin-1-yl)methyl)benzyl)benzo[cd]indol-1(2H)-yl)piperidin-2,6-dione]"
12,0.02,"O=C1CCC(N2C(=O)c3cccc4c(Cc5ccc(CN6CCN(c7cccc(-n8ccnc8)n7)CC6)cc5)ccc2c34)C(=O)N1 (stereo not shown) [Example 2, 3-(6-(4-((4-(6-(1H-imidazol-1-yl)pyridin-2-yl)piperazin-1-vi)methyl)benzyl)-2-oxobenzo[cd]indol-1(2H)-yl)piperidin-2,6-dione]"
13,0.06,"O=C1CCC(N2C(=O)c3cccc4c(Cc5ccc(CN6CCN(c7ccnc(-n8cnc(C9CC9)c8)n7)CC6)cc5)ccc2c34)C(=O)N1 (stereo not shown) [Example 26, 3-(6-(4-((4-(2-(4-cyclopropvl-1H-imidazol-1-yl)pyrimidin-4-yl)piperazin-1-yl)methyl)benzyl)-2-oxobenzo[cd]indol-1(2H)-yl)piperidin-2,6-dione]"
14,0.1,"O=C1CC[C@H](N2Cc3c(OCc4ccc(CN5CCN([C@H]6CC[C@H](NC(=O)c7ccnc(-n8ccnc8)n7)CC6)CC5)cc4)cccc3C2=O)C(=O)N1 [Example 15, N-((1R,4R)-4-(4-(4-(((2-((S)-2,6-dioxopiperidin-3-yl)-1-oxoisoindolin-4-yl)oxy)methyl)benzyl)piperazin-1-yl)cyclohexyl)-2-(1H-imidazol-1-yl)pyrimidin-4-carboxamide]"
15,0.1,"Cc1nc(N2CCN(C3CN(Cc4ccc(COc5cccc6c5CN([C@H]5CCC(=O)NC5=O)C6=O)cc4)C3)CC2)cc(-n2cnc(C)n2)n1 [Example 77, (S)-3-(4-((4-((3-(4-(2-methyl-6-(3-methyl-1H-1,2,4-triazol-1-yl)pyrimidin-4-yl)piperazin-1-yl)azetidin-1-yl)methyl)benzyl)oxy)-1-oxoisoindolin-2-yl)piperidin-2,6-dione]"
16,0.03,"O=C1CC[C@@H](N2C(=O)c3cccc4c(Cc5ccc(CN6CCN(c7ccnc(-n8cnc(C(F)(F)F)c8)n7)CC6)cc5)ccc2c34)C(=O)N1 [Example 34, (R)-3-(2-oxo-6-(4-((4-(2-(4-(trifluoromethyl)-1H-imidazol-1-yl)pyrimidin-4-yl)piperazin-1-yl)methyl)benzyl)benzo[cd]indol-1(2H)-yl)piperidin-2,6-dione]"
17,0.2,"O=C1CCC(N2C(=O)c3cccc4c(Cc5ccc(CN6CCN(c7cccc(-c8nnc(C(F)(F)F)s8)n7)CC6)cc5)ccc2c34)C(=O)N1 (stereo not shown) [Example 63, 3-(2-oxo-6-(4-((4-(6-(5-(trifluoromethyl)-1,3,4-thiadiazol-2-yl)pyridin-2-yl)piperazin-1-yl)methyl)benzyl)benzo[cd]indol-1(2H)-yl)piperidin-2,6-dione]"
18,0.1,"O=C1CCC(N2C(=O)c3cccc4c(Cc5ccc(CN6CCC(O[C@H]7CC[C@@H](NC(=O)c8cccc(-n9ccnc9)n8)CC7)CC6)cc5)ccc2c34)C(=O)N1 (stereo partly shown) [Example 27, N-((1s,4s)-4-((1-(4-((1-(2,6-dioxopiperidin-3-yl)-2-oxo-1,2-dihydrobenzo[cd]indol-6-yl)methyl)benzyl)piperidin-4-yl)oxy)cyclohexyl)-6-(1H-imidazol-1-yl)pyridin-2-carboxamide]"
19,0.02,"O=C1CCC(N2C(=O)c3cccc4c(Cc5ccc(CN6CCN(c7ccnc(-c8cccnc8)n7)CC6)cc5)ccc2c34)C(=O)N1 (stereo not shown) [Example 64, 3-(2-oxo-6-(4-((4-(2-(pyridin-3-yl)pyrimidin-4-yl)piperazin-1-yl)methyl)benzyl)benzo[cd]indol-1(2H)-yl)piperidin-2,6-dione]"
20,0.02,"O=C1CCC(N2C(=O)c3cccc4c(Cc5ccc(CN6CCN(c7ccnc(-n8cnc(Cl)c8)n7)CC6)cc5)ccc2c34)C(=O)N1 (stereo not shown) [Example 43, 3-(6-(4-((4-(2-(4-chloro-1H-imidazol-1-yl)pyrimidin-4-yl)piperazin-1-yl)methyl)benzyl)-2-oxobenzo[cd]indol-1(2H)-yl)piperidin-2,6-dione]"
21,0.03,"O=C1CCC(N2C(=O)c3cccc4c(Cc5ccc(CN6CCN(c7ccnc(-c8cncs8)n7)CC6)cc5)ccc2c34)C(=O)N1 (stereo not shown) [Example 58, 3-(2-oxo-6-(4-((4-(2-(thiazol-5-yl)pyrimidin-4-yl)piperazin-1-yl)methyl)benzyl)benzo[fcd]indol-1(2H)-yl)piperidin-2,6-dione]"
22,0.1,"Cc1nc(N2CCN(Cc3ccc(Cc4ccc5c6c(cccc46)C(=O)N5C4CCC(=O)NC4=O)cc3)CC2)cc(-n2cnc(C(F)(F)F)n2)n1 (stereo not shown) [Example 70, 3-(6-(4-((4-(2-methyl-6-(3-(trifluoromethyl)-1H-1,2,4-triazol-1-yl)pyrimidin-4-yl)piperazin-1-yl)methyl)benzyl)-2-oxobenzo[cd]indol-1(2H)-yl)piperidin-2,6-dione]"
23,0.2,"O=C1CCC(N2C(=O)c3cccc4c(Cc5ccc(CN6CCN(c7cc(C(F)(F)F)nc(-c8cncs8)n7)CC6)cc5)ccc2c34)C(=O)N1 (stereo not shown) [Example 59, 3-(2-oxo-6-(4-((4-(2-(thiazol-5-yl)-6-(trifluoromethyl)pyrimidin-4-yl)piperazin-1-yl)methyl)benzyl)benzo[cd]indol-1(2H)-yl)piperidin-2,6-dione]"
24,0.1,"O=C1CC[C@H](N2Cc3c(OCc4ccc(CN5CCN(CC6CCN(c7cccc(-n8ccnc8)n7)CC6)CC5)cc4)cccc3C2=O)C(=O)N1 [Example 17, (S)-3-(4-((4-((4-((1-(6-(1H-imidazol-1-yl)pyridin-2-yl)piperidin-4-yl)methyl)piperazin-1-yl)methyl)benzyl)oxy)-1-oxoisoindolin-2-yl)pyridin-2,6-dione]"
25,0.03,"Cc1noc(C)c1-c1nccc(N2CCN(Cc3ccc(Cc4ccc5c6c(cccc46)C(=O)N5C4CCC(=O)NC4=O)cc3)CC2)n1 (stereo not shown) [Example 65, 3-(6-(4-((4-(2-(3,5-dimethylisoxazol-4-yl)pyrimidin-4-yl)piperazin-1-yl)methyl)benzyl)-2-oxobenzo[cd]indol-1(2H)-yl)piperidin-2,6-dione]"
